This note sets out measurements from patent publication US20080311126A1, “Antisense Oligonucleotides Directed to Ribonucleotide Reducatase R2 and Uses Thereof in Combination Therapies for the Treatment of Cancer” (Genesense Technologies, Inc, priority 2004, published 2008).

In the data set the test system is A498 human renal carcinoma. The experiment in a line: A498 renal tumour xenograft in SCID mice, SEQ ID NO:1 and interferon alpha. Format: in vivo. The procedure:
Cell line: Human renal carcinoma cell line (A498) was grown as monolayer culture in Minimum essential medium (α-MEM) supplemented with 10% fetal bovine serum (FBS), 0.1 mM non-essential amino acid, 1.0 mM sodium pyruvate, 100 U/ml penicillin, 100 μg/ml streptomycin and 0.25 μg/ml amphotericin B and 2 mM L-alanyl-1-glutamine at 37° C. in an atmosphere of 5% CO2 in air. The tumour cells were routinely subcultured twice weekly by trypsin-EDTA treatment. The cells were harvested from subconfluent logarithmically growing culture by treatment with trypsin-EDTA and counted for tumour inoculation.
Tumour Inoculation: An acclimation period of at least 7 days was allowed between animal receipt and commencement of tumour inoculation. When the female SCID mice were 6-7 weeks of age (20-25 g), each mouse was subcutaneously injected with 9×10^6 A498 human renal carcinoma cells in 0.1 ml of PBS at the right flank of the mice to induce tumour growth.
Dose Preparation and Treatment: The dose for SEQ ID NO:1 was formulated using the following procedure. From a concentrated stock solution (usually prepared in ddH2O at a concentration of 50 mg/ml and kept at −80° C.), SEQ ID NO:1 was diluted with saline to achieve a final target concentration of 1 or 2.5 mg/ml on the first day of dosing. Enough SEQ ID NO:1 was diluted so that the compound could be administered by bolus infusion into the tail vein every other day for the duration of the experiment. Recombinant interferon alfa-2b (ntron A™) was employed according to the dose and treatment schedules below. The treatments were started 20 days after the tumour cell inoculation when the tumour size reached an approximate volume of 200 mm^3. Each treatment group contained 10 tumour-bearing mice. Routes of administration are as follows: intravenous (i.v.) and intratumoural (i.t.).
• 1. Saline treated group-1: saline 0.1 ml/mouse/48 hours, i.v., n=10 • 2. Saline treated group-2: saline 0.05 ml/mouse/5 days/week, i.t., n=10 • 3. SEQ ID NO:1 treated group: 1 mg/kg/48 hours in 0.1 ml saline, i.v. n=10 • 4. SEQ ID NO:1 treated group: 2.5 mg/kg/48 hours in 0.1 ml saline, i.v., n=10 • 5. […]
Treatment started from day 20 after inoculation of human renal tumour cells. […]
Endpoints: The effects of SEQ ID NO:1 and Intron A on tumour growth was determined. Tumour sizes were measured every week from day 20 after the tumour cell inoculation in two dimensions using a caliper, and the volume was expressed in mm^3 using the formula: V=0.5 a×b^2, where a and b are the long and short diameters of the tumour, respectively. Mean tumour volumes calculated from each measurement were then plotted in a standard graph to compare the anti-tumour efficacy to that of controls. A day after the last treatment, tumours were excised from the animals and their weights were measured. […]

For the sequence “GGCTAAATCGCTCCACCAAG (chemistry not given here) [SEQ ID NO: 1, antisense oligonucleotide that hybridizes to the coding region of human ribonucleotide reductase R2 mRNA]”, the “anti-tumour efficacy (tumour volume, tumour weight)” value is, setting by setting: (Example 6, SEQ ID NO:1 1 or 2.5 mg/kg/48 hours i.v., Intron A 10^3 or 10^5 unit 5 days/week i.t.) “significant anti-tumour efficacy”; (Example 7, SEQ ID NO:1 2.5 mg/kg/2ds i.v., 10000 units Intron A x5/week for 2 weeks i.t.) “significant anti-tumour efficacy”.
